Results as given in patent US20100267555A1, “Fungicidal mixtures II” (BASF SE, priority 2007, published 2010).
Like-named read-outs stand apart in the source and are kept apart here.

What was measured:
Type in all cases: cell-based
[1] = system: Septoria tritici; test: Activity against leaf blotch on wheat caused by Septoria tritici in the microtiter test (Septtr); settings: single active compound, day 7 after inoculation
[2] = system: Phytophthora infestans; settings: single active compound, 7 days after inoculation
[3] = system: Pyricularia oryzae; test: microbe, parasite or virus in culture; settings: 7 days after inoculation; for inhibition of growth at 4 ppm: read-out: Observed efficacy, single active compound, 4 ppm; for inhibition of growth at 16 ppm: read-out: Observed efficacy, single active compound, 16 ppm; for inhibition of growth at 0.063 ppm: read-out: Observed efficacy, single active compound, 0.063 ppm; for Observed efficacy: single active compound

Compound: Fc1ccc([C@]2(Cn3cncn3)O[C@H]2c2ccccc2Cl)cc1 (racemic) [Epoxiconazole, (2RS,3SR)-1-[3-(2-chlorophenyl)-2,3-epoxy-2-(4-fluorophenyl)propyl]-1H-1,2,4-triazole, reference compound]
- Observed efficacy ([1]; 0.063 ppm): 50%

Compound: O=C(OCc1cccc(C(F)(F)F)c1)[C@H](c1ccc(F)cc1F)[C@@H](O)c1cccnc1 (stereo in doubt) [I.57-RS, 3-trifluoromethylphenylmethyl 3-hydroxy-2-(2,4-difluorophenyl)-3-(3-pyridyl)propanoate]
- Observed efficacy ([2]; 4 ppm): 3%
- Observed efficacy ([1]; 4 ppm): 26%
- inhibition of growth at 4 ppm ([3]; Pyricularia oryzae, 168 h): 0%
- inhibition of growth at 16 ppm ([3]; Pyricularia oryzae, 168 h): 9%

Compound: O=C(OCc1cccc(C(F)(F)F)c1)[C@H](c1cccs1)[C@@H](O)c1cccnc1 (stereo in doubt) [I.59-RS, 3-trifluoromethylphenylmethyl 3-hydroxy-2-(2-thienyl)-3-(3-pyridyl)propanoate]
- Observed efficacy ([2]; 4 ppm): 11%
- Observed efficacy ([1]; 4 ppm): 14%
- inhibition of growth at 0.063 ppm ([3]; Pyricularia oryzae, 168 h): 1%
- inhibition of growth at 16 ppm ([3]; Pyricularia oryzae, 168 h): 14%
- Observed efficacy ([3]; 4 ppm): 0%

Compound: COC(=O)Nc1nc2ccccc2[nH]1 [Carbendazim, methyl (1H-benzoimidazol-2-yl)-carbamate, reference compound]
- inhibition of growth at 0.25 ppm ([3]; Pyricularia oryzae, 168 h, read-out: Observed efficacy, single active compound, 0.25 ppm): 19%

Compound: N#Cc1c(Cl)c(Cl)c(Cl)c(C#N)c1Cl [Chlorothalonil, 2,4,5,6-tetrachloroisophthalonitrile, reference compound]
- Observed efficacy ([2]; 0.25 ppm): 16%

Compound: Cc1ccc(-c2c(Cl)nc(C#N)n2S(=O)(=O)N(C)C)cc1 [Cyazofamid, 4-chloro-2-cyano-N,N-dimethyl-5-(4-methylphenyl)-1H-imidazole-1-sulfonamide, reference compound]
- Observed efficacy ([2]; 0.016 ppm): 56%

Compound: Cc1cc(C2CC2)nc(Nc2ccccc2)n1 [Cyprodinil, (4-cyclopropyl-6-methylpyrimidin-2-yl)phenylamine, reference compound]
- inhibition of growth at 4 ppm ([3]; Pyricularia oryzae, 168 h): 71%

Compound: CO/N=C(/C1=NOCCO1)c1ccccc1Oc1ncnc(Oc2ccccc2Cl)c1F [Fluoxastrobin, (E)-{2-[6-(2-chlorophenoxy)-5-fluoropyrimidin-4-yloxy]phenyl}(5,6-dihydro-1,4,2-dioxazin-3-yl)methanone O-methyloxime, reference compound]
- Observed efficacy ([1]; 0.25 ppm): 58%
- inhibition of growth at 0.063 ppm ([3]; Pyricularia oryzae, 168 h): 57%

Compound: O=C(OCc1cccc(C(F)(F)F)c1)[C@H](c1ccc(F)cc1F)[C@@H](O)c1cccnc1 [I.57-RR, 3-trifluoromethylphenylmethyl 3-hydroxy-2-(2,4-difluorophenyl)-3-(3-pyridyl)propanoate]
- Observed efficacy ([2]; 0.016 ppm): 0%
- Observed efficacy ([1]; 0.063 ppm): 4%

Compound: O=C(OCc1cccc(C(F)(F)F)c1)[C@H](c1cccs1)[C@@H](O)c1cccnc1 [I.59-RR, 3-trifluoromethylphenylmethyl 3-hydroxy-2-(2-thienyl)-3-(3-pyridyl)propanoate]
- Observed efficacy ([2]; 4 ppm): 7%
- inhibition of growth at 4 ppm ([3]; Pyricularia oryzae, 168 h): 0%
- Observed efficacy ([3]; 16 ppm): 8%

Compound: CC(C)NC(=O)N1CC(=O)N(c2cc(Cl)cc(Cl)c2)C1=O [Iprodione, N-isopropyl-3-(3,5-dichlorophenyl)-2,4-dioxoimidazolidine-1-carboxamide, reference compound]
- inhibition of growth at 4 ppm ([3]; Pyricularia oryzae, 168 h): 18%

Compound: Cc1ccc(C(C)NC(=O)[C@@H](NC(=O)OC(C)C)C(C)C)cc1 (stereo partly drawn) [Iprovalicarb, isopropyl [(1S)-2-methyl-1-(1-p-tolylethylcarbamoyl)propyl]carbamate, reference compound]
- Observed efficacy ([2]; 0.25 ppm): 9%

Compound: COC=C(C(=O)OC)c1ccccc1COc1cccc(C(F)(F)F)n1 [Picoxystrobin, methyl 3-methoxy-2-[2-(6-trifluoromethylpyridin-2-yloxymethyl)phenyl]acrylate, reference compound]
- inhibition of growth at 0.063 ppm ([3]; Pyricularia oryzae, 168 h): 49%

Compound: OC(Cc1ccccc1Cl)(Cn1nc[nH]c1=S)C1(Cl)CC1 (stereo not shown) [Prothioconazol, 2-[2-(1-chlorocyclopropyl)-3-(2-chlorophenyl)-2-hydroxypropyl]-2,4-dihydro-[1,2,4]triazole-3-thione, reference compound]
- inhibition of growth at 4 ppm ([3]; Pyricularia oryzae, 168 h): 15%
